Data reported in patent publication US10780072B2, “Methods for inhibiting conversion of choline to trimethylamine (TMA)” (The Procter & Gamble Company, priority 2015, dated 2020).

Tested on: Proteus mirabilis 29906 (Pm) lysate
Experiment: Inhibition of TMA formation from choline (d9-choline to d9-TMA) in Proteus mirabilis lysate, LC-MS/MS
Type: biochemical
Conditions: Pm lysate 1.5 mg/mL protein, 50 μM d9-choline chloride, 37° C. for two hours; read-out: TMA Inhibition (IC50, mol/L)

| Molecule | IC50 |
| --- | --- |
| COc1ccc(C)cc1N=C=S [Compound 1, 2-Methoxy-5-methylphenyl isothiocyanate] | 745 µM |
| COc1cccc(N=C=S)c1 [Compound 34, 3-Methoxy-phenyl isothiocyanate] | 88.3 µM |
| S=C=NC1CCCCC1 [Compound 30, Cyclohexyl isothiocyanate] | 56.1 µM |
| S=C=NCCc1ccc(Cl)cc1 [Compound 9, 2-(4-Chloro-phenethyl) isothiocyanate] | 30 µM |
| CCc1ccc(N=C=S)cc1 [Compound 31, 4-Ethylphenyl isothiocyanate] | 383 µM |
| S=C=NC(c1ccccc1)c1ccccc1 [Compound 38, Benzhydryl isothiocyanate] | 1560 µM |
| CN(C)CCCN=C=S [Compound 41, 3-isothio-cyanato-N,N-dimethyl-1-Propanamine] | 11.5 µM |
| S=C=NCc1ccccc1 [Compound 5, Benzyl isothiocyanate] | 3.03 µM |
| S=C=Nc1cccc2ccccc12 [Compound 19, 1-Naphthyl isothiocyanate] | 2080 µM |
| CN(C)CCN=C=S [Compound 42, 2-Isothio-cyanato-N,N-dimethyl-ethanamine] | 7.67 µM |
| CCCCN=C=S [Compound 13, Butyl isothiocyanate] | 50.4 µM |
| CC(=O)O[C@H]1[C@H](OC(C)=O)[C@@H](N=C=S)OC[C@H]1OC(C)=O [Compound 39, 2,3,4-Tri-O-acetyl-α-D-arabino-pyranosyl isothiocyanate] | 220 µM |
| CCCCCN=C=S [Compound 6, 1-pentyl isothiocyanate] | 41.4 µM |
| CCN(CC)CCN=C=S [Compound 40, Ethanamine, N,N-diethyl-2-isothio-cyanato] | 8.81 µM |
| COc1ccc(OC)c(N=C=S)c1 [Compound 33, 2,5-Di-methoxy-phenyl isothiocyanate] | 152 µM |
| CCC(C)N=C=S (stereo not drawn) [Compound 10, sec-butyl isothiocyanate] | 129 µM |
| S=C=Nc1ccccc1 [Compound 18, Phenyl isothiocyanate] | 120 µM |
| S=C=Nc1ccc(Cl)cc1 [Compound 27, 4-Chloro-phenyl isothiocyanate] | 108 µM |
| S=C=Nc1ccc(Br)cc1 [Compound 20, 4-Bromo-phenyl isothiocyanate] | 88.8 µM |
| CCN(CC)CCCN=C=S [Compound 7, 3-(Diethyl-amino) propyl isothiocyanate] | 1.56 µM |
| COc1ccccc1N=C=S [Compound 32, 2-Methoxy-phenyl isothiocyanate] | 188 µM |

| Molecule | IC50 |
| --- | --- |
| S=C=NCC1CCCCC1 [Compound 8, Cyclohexyl- methyl isothiocyanate] | 210 µM |
| CSc1ccc(N=C=S)cc1 [Compound 4, 4-(Methylthio) phenyl isothiocyanate] | 73.4 µM |
| CC(C)N=C=S [Compound 15, Isopropyl isothiocyanat] | 98.2 µM |
| C[N+](C)(C)CCN=C=S [Compound 45, 2-Isothio-cyanato-N,N,N-trimethyl-ethana-minium iodide] | 1.28 µM |
| Cc1cccc(N=C=S)c1 [Compound 3, m-Tolyl isothiocyanate] | 248 µM |
| Methyl isothiocyanate [Compound 14] | 20 µM |
| CC(C)(C)OC(=O)Nc1ccc(N=C=S)cc1 [Compound 23, N-Boc-4-isothio-cyanatoaniline] | 2530 µM |
| O=C(N=C=S)c1ccccc1 [Compound 21, Benzoyl isothiocyanate] | 196 µM |
| CCOC(=O)CN=C=S [Compound 36, Ethyl isothio- cyanato- acetate] | 3.98 µM |
| CC(C)(C)OC(=O)NCCCCN=C=S [Compound 22, N-Boc-4-isothio-cyanatobutyl-amine] | 65.2 µM |
| S=C=NCCCN1CCOCC1 [Compound 24, 3-(4-Morpholino) propyl isothiocyanate] | 15.7 µM |
| Ethyl isothiocyanate [Compound 11] | 28.6 µM |
| CC(C)CN=C=S [Compound 12, Isobutyl isothiocyanate] | 74.5 µM |
| CC(C)CCN=C=S [Compound 16, 1-isothio-cyanato-3-methyl-butane] | 66.1 µM |
| CCCCCC12CCC(C(=O)Oc3ccc(N=C=S)cc3)(CC1)CC2 [Compound 37, 4-Isothio-cyanato-phenyl 4-pentyl-bicyclo [2.2.2] octane-1-carboxylate] | 48900 µM |
| CC(C)(C)N=C=S [Compound 2, tert-Butyl isothiocyanate] | 5480 µM |
| CCC(C)CN=C=S (stereo not drawn) [Compound 44, Butane, 1-isothio-cyanato-2-methyl-] | 105 µM |
| S=C=NCCN1CCCCC1 [Compound 35, 2-Piperidino-ethyl isothiocyanate] | 14.3 µM |
| S=C=NC1CC2CCC1C2 (stereo not drawn) [Compound 29, exo-2-Norbornyl-isothiocyanate] | 48.2 µM |
| S=C=NCCN1CCOCC1 [Compound 25, 2-(4-Morpholino) ethyl isothiocyanate] | 13.4 µM |
| C[C@H](N=C=S)c1ccccc1 [Compound 26, (S)-(+)-alpha- Methylbenzyl isothiocyanate] | 20.9 µM |
